pIC50: −log10 of the molar value. Where two headings read alike, the source gives them in different places. Positions of bridges follow the written chain, without caps; N, C: chain ends. Non-standard residues stand in square brackets, D forms with d. Residues, ends and D or L forms follow the SMILES beside them. ξ: configuration not given here. *: point of attachment. X31 = CCCCCCCCCCCCCCCC(=O)NCCCC[C@H](NC(=O)[C@H](CC(=O)O)CC(=O)CCOCCOCCOCCOCCOCCOCCN*)C(N)=O; PEG6 = NCCOCCOCCOCCOCCOCCOCCC(=O)O; Palmitoyl = CCCCCCCCCCCCCCCC(=O)*; Hyp = O=C(O)[C@@H]1C[C@@H](O)CN1; Myristoyl = CCCCCCCCCCCCCC(=O)*; NMeNle = CCCC[C@H](NC)C(=O)O; NMeA = CN[C@@H](C)C(=O)O; Dab = NCC[C@H](N)C(=O)O; ξC = NC(CS)C(=O)O

The target of this assay is T1, PD-L1 (Homo sapiens, UniProt Q9NZQ7).
T1 construct: hPDL1(19-239)-TVMV-His; made in house; host or cells: HEK293T
As to the kind of experiment: PD-1/PD-L1 Homogenous Time-Resolved Fluorescence (HTRF) binding assay (PD-1-Ig/PD-L1-His). Conditions: inhibition of PD-1-Ig binding to PD-L1-TVMV-His, read-out: HTRF IC50. An excerpt:
The ability of the macrocyclic peptides of the present disclosure to bind to PD-L1 was investigated using a PD-1/PD-L1 Homogenous Time-Resolved Fluorescence (HTRF) binding assay.
Homogenous Time-Resolved Fluorescence (HTRF) Assays of Binding of Soluble PD-1 to Soluble PD-L1. Soluble PD-1 and soluble PD-L1 refers to proteins with carboxyl-end truncations that remove the transmembrane-spanning regions and are fused to heterologous sequences, specifically the Fc portion of the human immunoglobuling G sequence (Ig) or the hexahistidine epitope tag (His). All binding studies were performed in an HTRF assay buffer consisting of dPBS supplemented with 0.1% (w/v) bovine serum albumin and 0.05% (v/v) Tween-20. For the PD-1-Ig/PD-L1-His binding assay, inhibitors were pre-incubated with PD-L1-His (10 nM final) for 15 m in 4 μl of assay buffer, followed by addition of PD-1-Ig (20 nM final) in 1 μl of assay buffer and further incubation for 15m. PD-L1 fusion proteins from either human, cynomologous macaques, mouse, or other species were used. HTRF detection was achieved using europium crypate-labeled anti-Ig monoclonal antibody (1 nM final) and allophycocyanin (APC) labeled anti-His monoclonal antibody (20 nM final). Antibodies were diluted in HTRF detection buffer and 5 μl was dispensed on top of binding reaction. The reaction was allowed to equilibrate for 30 minutes and signal (665 nm/620 nm ratio) was obtained using an EnVision fluorometer. Additional binding assays were established between PD-1-Ig/PD-L2-His (20 and 5 nM, respectively), CD80-His/PD-L1-Ig (100 and 10 nM, respectively) and CD80-His/CTLA4-Ig (10 and 5 nM, respectively). Binding/competition studies between biotinylated Compound No. 71 and human PD-L1-His were performed as follows. Macrocyclic peptide inhibitors were pre-incubated with PD-L1-His (10 nM final) for 60 minutes in 4 μl of assay buffer followed by addition of biotinylated Compound No. 71 (0.5 nM final) in 1 μl of assay buffer. Binding was allowed to equilibrate for 30 minutes followed by addition of europium crypated labeled Streptavidin (2.5 pM final) and APC-labeled anti-His (20 nM final) in 5 μl of HTRF buffer. The reaction was allowed to equilibrate for 30m and signal (665 nm/620 nm ratio) was obtained using an EnVision fluorometer.
Recombinant Proteins. Carboxyl-truncated human PD-1 (amino acids 25-167) with a C-terminal human Ig epitope tag [hPD-1 (25-167)-3S-IG] and human PD-L1 (amino acids 18-239) with a C-terminal His epitope tag [hPD-L1(19-239)-tobacco vein mottling virus protease cleavage site (TVMV)-His] were expressed in HEK293T cells and purified sequentially by recombinant Protein A affinity chromatography and size exclusion chromatography. Human PD-L2-His (Sino Biologicals), CD80-His (Sino Biologicals), CTLA4-Ig (RnD Systems) were all obtained through commercial sources.
On the technique in general: Time-resolved FRET reads energy transfer from a long-lived donor to a nearby acceptor.

T1 sequence (Q9NZQ7 with tags, fused parts or gaps): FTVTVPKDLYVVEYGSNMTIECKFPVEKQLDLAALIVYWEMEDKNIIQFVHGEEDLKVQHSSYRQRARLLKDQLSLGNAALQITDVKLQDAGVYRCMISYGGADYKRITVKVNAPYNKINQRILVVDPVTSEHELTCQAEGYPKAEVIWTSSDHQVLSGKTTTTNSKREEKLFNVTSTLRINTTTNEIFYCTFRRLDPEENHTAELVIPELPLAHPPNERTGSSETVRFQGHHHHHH

A word on the pIC50: it is −log10 of the IC50, conventionally taken in molar units. As to `CCCCCCCCCCCCCC(=O)NCCCC[C@H](NC(=O)[C@H](CC(=O)O)NC(=O)CNC(=O)[C@@H]1CSCC(=O)N[C@@H](Cc2ccc(O)cc2)C(=O)N(C)[C@@H](C)C(=O)N[C@@H](CC(=O)O)C(=O)N2CCC[C@H]2C(=O)N[C@@H](Cc2cnc[nH]2)C(=O)N[C@@H](CC(C)C)C(=O)N2C[C@H](O)C[C@H]2C(=O)N[C@@H](Cc2c[nH]c3ccccc23)C(=O)N[C@@H](CO)C(=O)N[C@@H](Cc2c[nH]c3ccccc23)C(=O)N(C)[C@@H](CCCC)C(=O)N(C)[C@@H](CCCC)C(=O)N[C@@H](CCCNC(=N)N)C(=O)N1)C(N)=O` [Example 11016] ({CH2CO}-Y[NMeA]DPHL[Hyp]WSW[NMeNle][NMeNle]RCGDK(Myristoyl)-NH2; thioether N-14), the pIC50 (value given as range class) was 7.00 to 8.00. As to `CCCCCCCCCCCCCC(=O)NCCCC[C@H](NC(=O)[C@H](CC(=O)O)NC(=O)CCOCCOCCOCCOCCOCCOCCNC(=O)[C@H](CC(=O)O)NC(=O)CNC(=O)[C@@H]1CSCC(=O)N[C@@H](Cc2ccc(O)cc2)C(=O)N(C)[C@@H](C)C(=O)N[C@@H](CC(=O)O)C(=O)N2CCC[C@H]2C(=O)N[C@@H](Cc2cnc[nH]2)C(=O)N[C@@H](CC(C)C)C(=O)N2C[C@H](O)C[C@H]2C(=O)N[C@@H](Cc2c[nH]c3ccccc23)C(=O)N[C@@H](CO)C(=O)N[C@@H](Cc2c[nH]c3ccccc23)C(=O)N(C)[C@@H](CCCC)C(=O)N(C)[C@@H](CCCC)C(=O)N[C@@H](CCCNC(=N)N)C(=O)N1)C(N)=O` [Example 11017] ({CH2CO}-Y[NMeA]DPHL[Hyp]WSW[NMeNle][NMeNle]RCGD[PEG6]DK(Myristoyl)-NH2; thioether N-14), the pIC50 (value given as number) was 6.59. Regarding `CCCCCCCCCCCCCCCC(=O)NCCCC[C@H](NC(=O)[C@H](CC(=O)O)CC(=O)CCOCCOCCOCCOCCOCCOCCNC(=O)[C@H](CC(=O)O)NC(=O)CNC(=O)C1CSCC(=O)N[C@@H](Cc2ccc(O)cc2)C(=O)N(C)[C@@H](C)C(=O)N[C@@H](CC(=O)O)C(=O)N2CCC[C@H]2C(=O)N[C@@H](Cc2cnc[nH]2)C(=O)N[C@@H](CC(C)C)C(=O)N2C[C@H](O)C[C@H]2C(=O)N[C@@H](Cc2c[nH]c3ccccc23)C(=O)N[C@@H](CO)C(=O)N[C@@H](Cc2c[nH]c3ccccc23)C(=O)N(C)[C@@H](CCCC)C(=O)N(C)[C@@H](CCCC)C(=O)N[C@@H](CCCNC(=N)N)C(=O)N1)C(N)=O` (some centres unmarked) [Example 11018] ({CH2CO}-Y[NMeA]DPHL[Hyp]WSW[NMeNle][NMeNle]R[ξC]GD-X31; thioether N-14), the pIC50 (value given as range class) is 7.00 to 8.00. Consider `CCCCCCCCCCCCCCCC(=O)NCCCC[C@H](NC(=O)[C@@H]1CSCC(=O)N[C@@H](Cc2ccc(O)cc2)C(=O)N(C)[C@@H](C)C(=O)N[C@@H](CC(N)=O)C(=O)N2CCC[C@H]2C(=O)N[C@@H](CCN)C(=O)N[C@@H](CC(C)C)C(=O)N2C[C@H](O)C[C@H]2C(=O)N[C@@H](Cc2c[nH]c3ccccc23)C(=O)N[C@@H](CO)C(=O)N[C@@H](Cc2c[nH]c3ccccc23)C(=O)N(C)[C@@H](CCCC)C(=O)N(C)[C@@H](CCCC)C(=O)N[C@@H](CCCNC(=N)N)C(=O)N1)C(N)=O` [Example 11019] ({CH2CO}-Y[NMeA]NP[Dab]L[Hyp]WSW[NMeNle][NMeNle]RCK(Palmitoyl)-NH2; thioether N-14), for which the pIC50 (value given as range class) is 5.80 to 7.00. Still for that read-out and setting: under `CCCCCCCCCCCCCCCC(=O)NCCCC[C@H](NC(=O)CNC(=O)[C@@H]1CSCC(=O)N[C@@H](Cc2ccc(O)cc2)C(=O)N(C)[C@@H](C)C(=O)N[C@@H](CC(N)=O)C(=O)N2CCC[C@H]2C(=O)N[C@@H](CCN)C(=O)N[C@@H](CC(C)C)C(=O)N2C[C@H](O)C[C@H]2C(=O)N[C@@H](Cc2c[nH]c3ccccc23)C(=O)N[C@@H](CO)C(=O)N[C@@H](Cc2c[nH]c3ccccc23)C(=O)N(C)[C@@H](CCCC)C(=O)N(C)[C@@H](CCCC)C(=O)N[C@@H](CCCNC(=N)N)C(=O)N1)C(N)=O` [Example 11020] ({CH2CO}-Y[NMeA]NP[Dab]L[Hyp]WSW[NMeNle][NMeNle]RCGK(Palmitoyl)-NH2; thioether N-14) stands 5.80 to 7.00.

These data come from patent publication US10633419B2, “Immunomodulators” (BRISTOL-MYERS SQUIBB COMPANY, priority 2014, dated 2020).
